This note sets out measurements from patent US7459450B2, “Neuropeptide receptor modulators” (Schering Corporation, priority 2004, dated 2008).

Each structure is given as a SMILES string.

One assay deals with T1, Human NPY Y1 receptors (Homo sapiens, UniProt P25929).
T1 construct: expressed in transfected cells; host or cells: CHO cells (membrane protein)
T1 sequence (P25929 1-384): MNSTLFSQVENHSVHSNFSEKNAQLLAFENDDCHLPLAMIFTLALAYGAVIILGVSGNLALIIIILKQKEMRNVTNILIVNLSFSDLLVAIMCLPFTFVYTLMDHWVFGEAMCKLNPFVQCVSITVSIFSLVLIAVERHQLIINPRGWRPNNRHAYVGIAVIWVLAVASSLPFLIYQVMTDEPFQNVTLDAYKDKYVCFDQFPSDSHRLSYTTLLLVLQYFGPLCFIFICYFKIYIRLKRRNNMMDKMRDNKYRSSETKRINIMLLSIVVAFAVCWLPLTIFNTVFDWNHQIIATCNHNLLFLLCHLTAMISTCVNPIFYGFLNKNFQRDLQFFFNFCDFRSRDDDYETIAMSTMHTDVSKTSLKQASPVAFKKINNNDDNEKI
As to the kind of experiment: NPY Receptor Binding Assay.
Details: not given
The procedure:
NPY Receptor Binding Assay
Human NPY Y1 receptors were expressed in CHO cells. Binding assays were performed in 50 mM HEPES, pH 7.2, 2.5 mM CaCl2, 1 mM MgCl2 and 0.1% BSA containing 5-10 μg of membrane protein and 0.1 nM […] in a total volume of 200 μl. Non-specific binding was determined in the presence of 1 μM NPY. The reaction mixtures were incubated for 90 minutes at room temperature then filtered through Millipore MAFC glass fiber filter plates which had been pre-soaked in 0.5% polyethleneimine. The filters were washed with phosphate-buffered saline, and radioactivity was measured in a Packard TopCount scintillation counter.
A word on the Ki: it is a measure of affinity in units of concentration, obtained from inhibition or displacement. A lower Ki goes with a stronger hold on the target. Compound `CC(C)C[C@@H]1N/C(=N/c2ccc(CCNc3nc4ccc([N+](=O)[O-])cc4s3)cc2)SC1=O` [Example 340] came in with a Ki of more than 10 µM.
The same measure, in the same setting: the figure for `O=C1S/C(=N\c2ccc(CCNc3nc4ccc([N+](=O)[O-])cc4s3)cc2)N2CCC[C@@H]12` [Example 341] is more than 10 µM; for `O=C(O)C[C@@H]1N/C(=N/c2ccc(CCNc3nc4ccc([N+](=O)[O-])cc4s3)cc2)SC1=O` [Example 342] it is more than 10 µM.
On the same count and under the same terms, for `C[C@@H]1N/C(=N/c2ccc(CCNc3nc4ccc([N+](=O)[O-])cc4s3)cc2)SC1=O` [Example 343] the value was more than 10 µM.
On the same count and under the same terms, for `COc1ccc2nc(NCCc3ccc(/N=C4/N[C@@H](Cc5ccccc5)C(=O)S4)cc3)sc2c1` [Example 344] the value was more than 10 µM.
Regarding `COc1ccc2nc(NCCc3ccc(/N=C4/N[C@@H](CC(C)C)C(=O)S4)cc3)sc2c1` [Example 345], the inhibitory constant (Ki) is more than 10 µM.
The same measure, in the same setting: for `COc1ccc2nc(NCCc3ccc(/N=C4/N[C@@H](C(C)C)C(=O)S4)cc3)sc2c1` [Example 346] the value was more than 10 µM.
`COc1ccc2nc(NCCc3ccc(/N=C4\SC(=O)[C@@H]5CCCN45)cc3)sc2c1` [Example 347] registered a Ki of more than 10 µM.
The same measure, in the same setting: the figure for `COc1ccc2nc(NCCc3ccc(/N=C4/N[C@@H](CC(=O)O)C(=O)S4)cc3)sc2c1` [Example 348] is more than 10 µM; for `COc1ccc2nc(NCCc3ccc(/N=C4/N[C@@H](C)C(=O)S4)cc3)sc2c1` [Example 349] it is more than 10 µM.
`Cc1ccc2nc(NCCc3ccc(/N=C4/N[C@@H](Cc5ccccc5)C(=O)S4)cc3)sc2c1` [Example 350] displayed a Ki of more than 10 µM.
Compound `Cc1ccc2nc(NCCc3ccc(/N=C4/N[C@@H](CC(C)C)C(=O)S4)cc3)sc2c1` [Example 351] gave a Ki of more than 10 µM.
The same measure, in the same setting: the figure for `CS(=O)(=O)c1ccc2nc(NCCc3ccc(/N=C4\SC(=O)[C@@H]5CCCN45)cc3)sc2c1` [Example 352] is more than 10 µM.
The same measure, in the same setting: the figure for `CS(=O)(=O)c1ccc2nc(NCCc3ccc(/N=C4/N[C@@H](CC(=O)O)C(=O)S4)cc3)sc2c1` [Example 353] is more than 10 µM.
Compound `C[C@@H]1N/C(=N/c2ccc(CCNc3nc4ccc(S(C)(=O)=O)cc4s3)cc2)SC1=O` [Example 354] registered a Ki of more than 10 µM.
On the same count and under the same terms, for `O=C1S/C(=N\c2ccc(CCNc3nc4ccc([N+](=O)[O-])cc4s3)cc2)N[C@H]1Cc1ccccc1` [Example 355] the value was more than 10 µM; for `CC(C)[C@@H]1N/C(=N/c2ccc(CCNc3nc4ccc([N+](=O)[O-])cc4s3)cc2)SC1=O` [Example 356], more than 10 µM; for `CSCC[C@@H]1N/C(=N/c2ccc(CCNc3nc4ccc(C)cc4s3)cc2)SC1=O` [Example 357], 1 to 10 µM.
On the same count and under the same terms, for `O=C(O)C[C@@H]1N/C(=N/c2ccc(CCNc3nc4ccc(Cl)cc4s3)cc2)SC1=O` [Example 358] the value was more than 10 µM.
Same read-out and setting: the figure for `CC(C)[C@@H]1N/C(=N/c2ccc(CCNc3nc4ccc(S(C)(=O)=O)cc4s3)cc2)SC1=O` [Example 359] is more than 10 µM.
With `O=C1S/C(=N\c2ccc(CCNc3nc4cc(Cl)c(Cl)cc4s3)cc2)N[C@H]1Cc1ccccc1` [Example 360], the Ki was more than 10 µM.
`CSCC[C@@H]1N/C(=N/c2ccc(CCNc3nc4cc(Cl)c(Cl)cc4s3)cc2)SC1=O` [Example 361] came in with an inhibition constant (Ki) of more than 10 µM.
Still for that read-out and setting: for `CC(C)C[C@@H]1N/C(=N/c2ccc(CCNc3nc4cc(Cl)c(Cl)cc4s3)cc2)SC1=O` [Example 362] the value was more than 10 µM; for `CC(C)[C@@H]1N/C(=N/c2ccc(CCNc3nc4cc(Cl)c(Cl)cc4s3)cc2)SC1=O` [Example 363], more than 10 µM.
For the compound `COc1cccc2sc(NCCc3ccc(/N=C4/N[C@@H](CC(C)C)C(=O)S4)cc3)nc12` [Example 364], the Ki is more than 10 µM.
`COc1cccc2sc(NCCc3ccc(/N=C4/N[C@@H](C(C)C)C(=O)S4)cc3)nc12` [Example 365] yielded a Ki of more than 10 µM.
Consider `COc1cccc2sc(NCCc3ccc(/N=C4\SC(=O)[C@@H]5CCCN45)cc3)nc12` [Example 366], for which the Ki was more than 10 µM.
Turning to `COc1cccc2sc(NCCc3ccc(/N=C4/N[C@@H](CC(=O)O)C(=O)S4)cc3)nc12` [Example 367], the Ki was more than 10 µM.
Same read-out and setting: the figure for `COc1cccc2sc(NCCc3ccc(/N=C4/N[C@@H](C)C(=O)S4)cc3)nc12` [Example 368] is more than 10 µM.

Still in this assay, the particulars now being: Procedure E compounds, rated A/B/C.
On to `C=C(C)CN1/C(=N/c2ccc(CCNc3nc4ccc(C)cc4s3)cc2)SC2Cc3ccccc3[C@@H]21` (stereo partly drawn) [Example 225], for which the inhibitory constant (Ki) was more than 10 µM.
Same read-out and setting: for `Cc1ccc2nc(NCCc3ccc(/N=C4/NC5(CCCC5)CS4)cc3)sc2c1` [Example 226] the value was 1 to 10 µM; for `Cc1ccc2nc(NCCc3ccc(/N=C4/NC(C)(C)CS4)cc3)sc2c1` [Example 227], less than 1 µM; for `COc1cccc2sc(NCCc3ccc(/N=C4\SC5Cc6ccccc6[C@@H]5N4C)cc3)nc12` (stereo partly drawn) [Example 228], more than 10 µM.
For `COc1cccc2sc(NCCc3ccc(/N=C4\SC5Cc6ccccc6[C@@H]5N4C4CC4)cc3)nc12` (stereo partly drawn) [Example 229], the Ki is more than 10 µM.
`COc1cccc2sc(NCCc3ccc(/N=C4\SCCN4C)cc3)nc12` [Example 230] came in with a Ki of more than 10 µM.
`Clc1ccc2nc(NCCc3ccc(/N=C4/N[C@@H](Cc5c[nH]cn5)CS4)cc3)sc2c1` [Example 238] yielded a Ki of 1 to 10 µM.
The same measure, in the same setting: for `Clc1ccc2nc(NCCc3ccc(/N=C4/NC5(CCCC5)CS4)cc3)sc2c1` [Example 239] the value was 1 to 10 µM; for `CC1(C)CS/C(=N\c2ccc(CCNc3nc4ccc(Cl)cc4s3)cc2)N1` [Example 240], 1 to 10 µM; for `CC(C)C[C@@H]1CS/C(=N\c2ccc(CCNc3nc4ccc(S(C)(=O)=O)cc4s3)cc2)N1` [Example 245], 1 to 10 µM.
The same measure, in the same setting: the figure for `CCCC1CS/C(=N\c2ccc(CCNc3nc4ccc(S(C)(=O)=O)cc4s3)cc2)N1` (stereo not drawn) [Example 249] is 1 to 10 µM; for `CCC1CS/C(=N\c2ccc(CCNc3nc4ccccc4s3)cc2)N1` (stereo not drawn) [Example 263] it is less than 1 µM; for `CCCC1CS/C(=N\c2ccc(CCNc3nc4ccccc4s3)cc2)N1` (stereo not drawn) [Example 264] it is less than 1 µM.
Still for that read-out and setting: for `C[C@@H]1CS/C(=N\c2ccc(CCNc3nc4ccccc4s3)cc2)N1` [Example 268] the value was less than 1 µM; for `CC[C@@H]1CS/C(=N\c2ccc(CCNc3nc4ccccc4s3)cc2)N1` [Example 269], less than 1 µM; for `c1ccc2sc(NCCc3ccc(/N=C4/N[C@@H](Cc5c[nH]cn5)CS4)cc3)nc2c1` [Example 270], less than 1 µM.
`c1ccc2sc(NCCc3ccc(/N=C4/NC5(CCCC5)CS4)cc3)nc2c1` [Example 271] returned a Ki of less than 1 µM.
For the compound `CC1(C)CS/C(=N\c2ccc(CCNc3nc4ccccc4s3)cc2)N1` [Example 272], the Ki was less than 1 µM.
Still for that read-out and setting: the figure for `CC(C)C[C@@H]1CS/C(=N\c2ccc(CCNc3nc4ccc(F)cc4s3)cc2)N1` [Example 297] is less than 1 µM; for `CC1(C)CS/C(=N/c2cccc(CCNc3nc4ccccc4s3)c2)N1` [Example 321] it is more than 10 µM.
In the case of `COc1ccc2nc(NCCc3ccc(/N=C4/NCC(C)S4)cc3)sc2c1` (stereo not drawn) [Example 322], the inhibition constant (Ki) was more than 10 µM.
Take `Cc1ccc2nc(NCCc3ccc(/N=C4/N[C@@H](C)C(c5ccccc5)S4)cc3)sc2c1` (stereo partly drawn) [Example 323]: the Ki is more than 10 µM.
Compound `Cc1ccc2nc(NCCc3ccc(/N=C4/NCC(C)S4)cc3)sc2c1` (stereo not drawn) [Example 324] registered a Ki of more than 10 µM.
In the case of `COc1cccc2sc(NCCc3ccc(/N=C4/N[C@H]5c6ccccc6CC5S4)cc3)nc12` (stereo partly drawn) [Example 325], the Ki was more than 10 µM.
For the compound `COc1cccc2sc(NCCc3ccc(/N=C4/NCC(C)S4)cc3)nc12` (stereo not drawn) [Example 326], the inhibition constant (Ki) was more than 10 µM.
`Cc1cccc2sc(NCCc3ccc(/N=C4/NCC(C)S4)cc3)nc12` (stereo not drawn) [Example 327] displayed a Ki of more than 10 µM.
The same measure, in the same setting: the figure for `Fc1ccc2nc(NCCc3ccc(/N=C4/N[C@H]5c6ccccc6CC5S4)cc3)sc2c1` (stereo partly drawn) [Example 328] is less than 1 µM.
The compound `Fc1ccc2nc(NCCc3ccc(/N=C4/NCC(c5ccccc5)S4)cc3)sc2c1` (stereo not drawn) [Example 329] registered an inhibitory constant (Ki) of more than 10 µM.
`CC1CN/C(=N/c2ccc(CCNc3nc4ccc(F)cc4s3)cc2)S1` (stereo not drawn) [Example 330] yielded a Ki of more than 10 µM.
In turn, `CC1CN/C(=N/c2ccc(CCNc3nc4ccc(Cl)cc4s3)cc2)S1` (stereo not drawn) [Example 331] displayed a Ki of more than 10 µM.
On the same count and under the same terms, for `CS(=O)(=O)c1ccc2nc(NCCc3ccc(/N=C4/N[C@H]5c6ccccc6CC5S4)cc3)sc2c1` (stereo partly drawn) [Example 332] the value was more than 10 µM.
Compound `COc1ccc(C2CCSC(Nc3ccc(CCNc4nc5ccccc5s4)cc3)=N2)cc1` (stereo not drawn) [Example 333] registered a Ki of less than 1 µM.
In the case of `CC(C)C1CCSC(Nc2ccc(CCNc3nc4ccccc4s3)cc2)=N1` (stereo not drawn) [Example 334], the Ki was less than 1 µM.
`Brc1ccc(C2CCSC(Nc3ccc(CCNc4nc5ccccc5s4)cc3)=N2)cc1` (stereo not drawn) [Example 335] showed a Ki of less than 1 µM.
Still for that read-out and setting: the figure for `c1ccc2c(CC3CSC(Nc4ccc(CCNc5nc6ccccc6s5)cc4)=N3)cccc2c1` (stereo not drawn) [Example 336] is more than 10 µM; for `Clc1ccc(C2CCSC(Nc3ccc(CCNc4nc5ccccc5s4)cc3)=N2)cc1` (stereo not drawn) [Example 337] it is less than 1 µM; for `CC(C)CC1CCSC(Nc2ccc(CCNc3nc4ccccc4s3)cc2)=N1` (stereo not drawn) [Example 338] it is less than 1 µM.
